Where a SMILES comes first, the peptide text is derived from it. Bridges are numbered along the chain shown (N, C = ends). [ ]: non-standard residue; d: D form. The star is where a group is joined. R8 = C=CCCCCCC[C@@](C)(N)C(=O)O; S5 = C=CCCC[C@](C)(N)C(=O)O; Cbz = O=C(OCc1ccccc1)*; Ahx = NCCCCCC(=O)O
Legend:
[1] = biological target: T1, β-catenin (Homo sapiens, UniProt P35222); experiment: β-catenin immunoblotting / immunoprecipitation in HEK293T cells
T1 sequence (P35222 1-781): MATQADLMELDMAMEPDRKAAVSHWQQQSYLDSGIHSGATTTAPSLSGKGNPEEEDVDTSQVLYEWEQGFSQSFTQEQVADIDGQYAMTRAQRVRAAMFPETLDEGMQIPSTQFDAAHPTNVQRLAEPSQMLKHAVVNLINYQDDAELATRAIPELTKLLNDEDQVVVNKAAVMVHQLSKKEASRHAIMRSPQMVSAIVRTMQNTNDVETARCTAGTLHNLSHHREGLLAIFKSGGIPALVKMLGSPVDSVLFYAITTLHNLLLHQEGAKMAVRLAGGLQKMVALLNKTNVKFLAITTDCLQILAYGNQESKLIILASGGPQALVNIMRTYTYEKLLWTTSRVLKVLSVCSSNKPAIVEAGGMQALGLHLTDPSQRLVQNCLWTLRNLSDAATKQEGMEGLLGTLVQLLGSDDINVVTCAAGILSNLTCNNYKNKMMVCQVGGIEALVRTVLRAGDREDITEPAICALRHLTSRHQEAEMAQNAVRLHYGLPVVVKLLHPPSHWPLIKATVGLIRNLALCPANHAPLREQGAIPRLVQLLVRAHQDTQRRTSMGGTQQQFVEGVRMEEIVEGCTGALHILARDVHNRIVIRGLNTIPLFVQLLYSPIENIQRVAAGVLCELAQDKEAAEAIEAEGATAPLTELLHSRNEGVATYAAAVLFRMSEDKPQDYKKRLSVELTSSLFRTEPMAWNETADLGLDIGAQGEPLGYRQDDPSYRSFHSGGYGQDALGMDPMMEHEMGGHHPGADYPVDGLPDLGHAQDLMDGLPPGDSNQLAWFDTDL
Procedure: The relative band intensity was quantified with ImageJ and normalized to GAPDH.
For immunoprecipitation, the cells were lysed in TNE lysis buffer (50 mM Tris-HCl, pH 8.0, 150 mM NaCl, 1% Nonidet P-40, and protease inhibitor cocktail). […] After 18,000×g centrifugation for 10 min, the lysates were immunoprecipitated with specific antibody and protein A-Sepharose beads and then washed the beads with TNE buffer for three times before immunoblotting.

[2] = system: β-catenin; experiment: β-catenin immunoblotting in colorectal cancer cells (HCT116, SW480, LoVo); type: cell-based; details: 50 μM xStAx-VHLL, 24 h
Procedure: Relative
β-catenin protein level was quantified with ImageJ and normalized to GAPDH. Data […]
(b) LoVo cells were treated with 50 μM xStAx (xS), 50 μM
immunoblotting. (c, d) LoVo (c) and SW480 (d) cells were treated with different

[3] = system: APC^−/− organoids; experiment: APC^−/− mouse intestinal organoid culture; type: cell-based; details: 10 μM MSAB or 50 μM xStAx-VHLL, 4 days
[4] = biological target: T2, β-catenin (133-665) (Homo sapiens, UniProt P35222); experiment: Isothermal titration calorimetry (ITC) of peptides with purified β-catenin
T2 sequence (P35222 133-665): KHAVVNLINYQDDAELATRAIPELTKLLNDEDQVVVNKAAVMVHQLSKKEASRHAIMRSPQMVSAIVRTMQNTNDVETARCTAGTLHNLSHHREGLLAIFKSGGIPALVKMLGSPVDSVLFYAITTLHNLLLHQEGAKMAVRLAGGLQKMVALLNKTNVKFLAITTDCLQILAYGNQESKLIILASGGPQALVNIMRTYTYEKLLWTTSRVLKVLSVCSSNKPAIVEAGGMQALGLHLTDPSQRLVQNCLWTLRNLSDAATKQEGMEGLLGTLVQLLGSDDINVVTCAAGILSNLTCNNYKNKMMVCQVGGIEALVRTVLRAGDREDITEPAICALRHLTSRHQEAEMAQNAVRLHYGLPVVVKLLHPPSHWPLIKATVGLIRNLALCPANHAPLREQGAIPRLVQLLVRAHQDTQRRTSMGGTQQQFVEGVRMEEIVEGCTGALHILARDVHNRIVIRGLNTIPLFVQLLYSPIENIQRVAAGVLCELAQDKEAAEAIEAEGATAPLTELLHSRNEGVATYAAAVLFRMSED
Procedure: The binding ability of the peptides with purified
β-catenin protein in vitro.
(a) Isothermal titration calorimetry (ITC) analysis to measure the interaction between
Biotinylated peptides were incubated with streptavidin beads and then employed to
The input β-catenin protein level
was stained with Coomassie brilliant blue. The pulled down β-catenin was
immunoblotted with anti-His antibody, and relative band intensity was quantified.

[5] = cited from earlier work
Text: Peptide stapling chemistry developed by Verdine and coworkers, takes advantage of ruthenium-catalyzed metathesis to crosslink the side chains of paired anchoring residues at suitable positions, and has been successfully applied to design various peptide inhibitors with improved proteolytic stability, membrane permeability, and thus biological activity[11],[12]. Modeled after the same Axin-derived peptide motif, we and Verdine la ... || There is more space for the improvement of the working efficacy of xStAx-VHLL. The VHL peptide ligand inserted in this study consists of natural amino acids, which could be degraded once the PROTAC peptide enters the cell. Non-natural residues substitution instead of original ones, such as reported hydroxyproline to replace regular proline[31],[32], could be an effective approach to enhance the proteolytic resistance of PROTAC. It was previously reported that peptide double-stapling at both N-terminals and C-terminals rather than single stapling conferred striking protease resistance upon the ...

With CC(C)C[C@@H](C=O)NC(=O)[C@H](CC(C)C)NC(=O)[C@H](CC(C)C)NC(=O)OCc1ccccc1 [MG132, reference compound] (Cbz-Leu-Leu-Leu-aldehyde) the “effect of proteasome inhibitor on xStAx-VHLL-induced β-catenin degradation” value ([1]; peptides 70 μM and MG132 10 μM, 16 h) was “blocked β-catenin degradation”.
In the case of COC(=O)c1cccc(NS(=O)(=O)c2ccc(C)cc2)c1 [MSAB, reference compound], the “β-catenin protein level, MSAB versus xStAx-VHLL” value ([2]; HCT116 and SW480, 10 μM MSAB) is reported as “decreased β-catenin protein to a comparable level”, the “β-catenin protein level, MSAB versus xStAx-VHLL” value ([2]; LoVo, 10 μM MSAB) is reported as “had no effect” and the “β-catenin protein level, MSAB versus xStAx-VHLL” value ([1]; 10 μM MSAB, 50 μM xStAx-VHLL (legend: 70 μM, Wnt3a CM), 24 h) is reported as “decreased β-catenin protein to a comparable level”. For the same compound, the “β-catenin level after wash-out of the drug” value ([1]; MSAB 10 μM or xStAx-VHLL 70 μM 24 h, then fresh medium 24 or 48 h) was “restored after 24 h” and the “APC^−/− organoid survival, MSAB versus xStAx-VHLL” value [3] was “minimal effect”.
In the case of CC[C@H](C)[C@@H]1NC(=O)[C@](C)(NC(=O)[C@H](CCC(N)=O)NC(=O)[C@@H]2CCCN2C(C)=O)CCCCCCC=CCCC[C@@](C)(C(=O)N[C@@H](CCCNC(=N)N)C(=O)N[C@H](C(=O)N[C@@H](CCSC)C(=O)N[C@@H](CCCCN)C(N)=O)C(C)C)NC(=O)[C@H](C(C)C)NC(=O)[C@H](Cc2c[nH]cn2)NC(=O)[C@H](CCC(N)=O)NC(=O)[C@H](CC(=O)O)NC(=O)[C@H](CC(C)C)NC1=O [SAHPA1, reference compound] (Ac-PQ[R8]ILDQHV[S5]RVMK-NH2; staple 3-10), the Kd [4] is given as 38 µM and the “ability to penetrate the cell membrane” value [5] is given as “capable of penetrating the cell membrane”.
With CC[C@H](C)[C@@H]1NC(=O)[C@](C)(NC(=O)[C@H](CCC(N)=O)NC(=O)[C@@H]2CCCN2C(C)=O)CCCCCCC=CCCC[C@@](C)(C(=O)N[C@@H](CCCNC(=N)N)C(=O)N[C@H](C(=O)N[C@@H](CCSC)C(=O)N[C@@H](CCCCN)C(=O)NCCCCCC(=O)N[C@@H](C)C(=O)N[C@@H](CC(C)C)C(=O)N[C@@H](C)C(=O)N2CCC[C@H]2C(=O)N[C@@H](Cc2ccc(O)cc2)C(=O)N[C@H](C(=O)N2CCC[C@H]2C(N)=O)[C@@H](C)CC)C(C)C)NC(=O)[C@H](C(C)C)NC(=O)[C@H](Cc2c[nH]cn2)NC(=O)[C@H](CCC(N)=O)NC(=O)[C@H](CC(=O)O)NC(=O)[C@H](CC(C)C)NC1=O [SAHPA1-VHLL] (Ac-PQ[R8]ILDQHV[S5]RVMK[Ahx]ALAPYIP-NH2; staple 3-10) the Kd [4] was 55 µM.
With Cc1ncsc1-c1ccc(CNC(=O)[C@@H]2C[C@@H](O)CN2C(=O)[C@@H](NC(=O)C2(C#N)CC2)C(C)(C)C)cc1 [VH-298, reference compound] the “effect of VHL ligase inhibitor on xStAx-VHLL-mediated β-catenin degradation” value ([2]; LoVo, 100 μM inhibitor) was “blocked it” and the “effect of VHL ligase inhibitor on xStAx-VHLL-mediated β-catenin degradation” value ([1]; Wnt3a CM, 70 μM xStAx-VHLL, 100 μM inhibitor, 24 h) was “blocked it”.
For CC[C@H](C)[C@@H]1NC(=O)[C@@](C)(NC(=O)[C@H](CCCNC(=N)N)NC(=O)[C@@H]2CCCN2C(=O)[C@H](Cc2c[nH]c3ccccc23)NC(=O)[C@H](CCCNC(=N)N)NC(=O)[C@H](CCCNC(=N)N)NC(C)=O)CCCC=CCCC[C@@](C)(C(=O)N[C@@H](Cc2c[nH]cn2)C(=O)N[C@H](C(=O)N[C@@H](CCCNC(=N)N)C(=O)N[C@@H](CCCNC(=N)N)C(=O)N[C@H](C(=O)N[C@@H](Cc2c[nH]c3ccccc23)C(=O)N[C@@H](CCCNC(=N)N)C(N)=O)C(C)C)C(C)C)NC(=O)[C@H](CC(=O)O)NC(=O)[C@H](CC(C)C)NC1=O [xStAx] (Ac-RRWPR[S5]ILD[S5]HVRRVWR-NH2; staple 6-10), the “ability to penetrate the cell membrane” value [5] is given as “capable of penetrating the cell membrane”.
